Drawing on US20240083892A1 (BISICHEM CO., LTD., priority 2021, published 2024), this text covers IC50 for 18 compounds.

Bounds are passed on as bounds.

The target in test [1] is T1, RIPK1 (Homo sapiens, UniProt Q13546).
T1 construct: endogenous in cells; host or cells: HT-29 (KCLB 30038)
T1 sequence (Q13546 1-671): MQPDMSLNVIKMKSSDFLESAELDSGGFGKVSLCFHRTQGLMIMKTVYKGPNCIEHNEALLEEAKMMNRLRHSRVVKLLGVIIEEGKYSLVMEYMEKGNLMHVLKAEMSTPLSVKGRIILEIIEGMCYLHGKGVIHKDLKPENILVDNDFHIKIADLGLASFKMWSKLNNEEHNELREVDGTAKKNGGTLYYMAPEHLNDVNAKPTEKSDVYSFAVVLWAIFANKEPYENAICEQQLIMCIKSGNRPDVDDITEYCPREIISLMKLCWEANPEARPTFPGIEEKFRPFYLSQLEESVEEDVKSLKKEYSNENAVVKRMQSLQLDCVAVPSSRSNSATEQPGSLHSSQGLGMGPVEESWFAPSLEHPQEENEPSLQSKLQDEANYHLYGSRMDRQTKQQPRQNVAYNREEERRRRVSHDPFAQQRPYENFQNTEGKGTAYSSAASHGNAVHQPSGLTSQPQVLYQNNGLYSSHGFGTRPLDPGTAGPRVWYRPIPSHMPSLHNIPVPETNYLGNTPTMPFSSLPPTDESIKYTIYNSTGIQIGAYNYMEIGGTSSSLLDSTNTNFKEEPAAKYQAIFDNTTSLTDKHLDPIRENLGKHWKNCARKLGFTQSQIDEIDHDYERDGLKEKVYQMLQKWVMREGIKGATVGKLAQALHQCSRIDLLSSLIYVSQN
The test can be described thus: Cell-based necroptosis assay for RIPK1 activity (cell viability by CCK-8). Particulars: HT-29 cells; Z-VAD-FMK 20 μM, human TNFα 10 ng/ml, SM-164 100 nM; 24 h; read-out: Cell-base RIPK1 activity: Necroptosis. As for the experimental part: (§1) Human colon carcinoma cell HT-29 (KCLB 30038), BV2 mouse microglial cell (cell was a kind gift from Dr. Nak-Yun Sung, Senior researcher at Korea Prime Pharmacy CO., LTD.) and human microglial cell HMC3 (ATCC® CRL-3304™). HT-29 cell was grown in Roswell Park Memorial Institute (RPMI) 1640, BV2 cell was grown in Dulbecco's Modified Eagle's Medium (DMEM) and HMC3 cell was grown in Minimum Essential Media Eagle (MEM) supplemented with 10% fetal bovine serum and 1% mixture of penicillin and streptomycin (Gibco). Cells were maintained at 37° C. in a humidified 5% CO2 atmosphere.
To measure the activity of RIPK1 inhibitor in necroptotic cells, HT-29 cells were treated by control DMSO, human TNFα (Peprotech, Rocky Hill, USA), SM-164 (Biovision, California, USA) and a pan-caspase inhibitor Z-VAD-FMK (Invivogen, San Diego, USA). Cells were pretreated with Z-VAD-FMK 20 μM. After 30 min, human TNFα 10 ng/ml, SM-164 100 nM and RIPK1 Inhibitor (0.0001, 0.001, 0.01, 0.02, 0.05, 0.1, 1, 10 uM) were treated for 24 h. Cell viability was measured by Cell Counting Kit 8 (CCK-8) (Dong-in, Seoul, Korea).

Test [2] has as its target T1, RIPK1. Nature of the test: Immunoblotting of TNFα induced phospho-RIPK1 (ser 166) levels. It counts as cell-based. The following applies: HMC3 cells; Z-VAD-FMK, human TNFα 20 ng/ml, SM-164 100 nM; 7 h, serum free media; read-out: Cell-base RIPK1 activity: phspho-RIPK1 (Ser166). As for the experimental part: as §1
Biological activity of the compounds of RIPK1 inhibitor was determined by measuring their ability to inhibitor TNFα induced phospho-RIPK1 (ser 166) levels, phospho-RIPK3 levels, phospho-MLKL levels in HMC3 cells. Cells were pretreated with Z-VAD-FMK […]. After 30 min, human TNFα 20 ng/ml, SM-164 100 nM and RIPK1 inhibitor (0.1, 1, 10 nM) were treated for 7 h under serum free media. Cells were lysed with cold lysis buffer containing 25 mM HEPES pH 7.6, […] NaCl, 1% NP40, 1% sodium deoxycholate, 0.1% SDS, and protease inhibitor mixture (Bimake, Houston, USA) using sonicators. The cells were centrifuged at 15,000 rpm, 4° C. for 5 min. After protein concentration of the lysates (supernatants) was quantified using BCA assay (Thermo Fisher Scientific, Waltham, USA), lysates were mixed with LDS sample buffer and heating at […] for 10 min. (Invitrogen, California, USA). […] The membranes are placed in an image analyzer (Imagequant, LAS 500, GE Healthcare), connected to a computer which allows the image generation (software Image reader LAS 500).

Regarding `CN1C(=O)[C@@H](NC(=O)n2cc(Cc3cccc(F)c3)cn2)COc2ccc(C(=O)N3CCCCC3)cc21` [Example 1, (S)-4-(3-fluorobenzyl)-N-(5-methyl-4-oxo-7-(piperidine-1-carbonyl)-2,3,4,5-tetrahydrobenzo[b][1,4]oxazepin-3-yl)-1H-pyrazole-1-carboxamide], the IC50 at RIPK1 [1] and at RIPK1 [2] was 10 to 50 nM throughout.
With `CN1C(=O)[C@@H](NC(=O)n2cc(Cc3cccc(F)c3)cn2)COc2ccc(C(=O)N3CCC(C)(C)CC3)cc21` [Example 2, (S)—N-(7-(4,4-dimethylpiperidine-1-carbonyl)-5-methyl-4-oxo-2,3,4,5-tetrahydrobenzo[b][1,4]oxazepin-3-yl)-4-(3-fluorobenzyl)-1H-pyrazole-1-carboxamide], the IC50 on RIPK1 [1] and on RIPK1 [2] was < 10 nM each time.
With `CN1C(=O)[C@@H](NC(=O)n2cc(Cc3cccc(F)c3)cn2)COc2ccc(C(=O)N3CCC(F)(F)CC3)cc21` [Example 3], the IC50 on RIPK1 [1] and at RIPK1 [2] was 10 to 50 nM each time.
As for `CN1C(=O)[C@@H](NC(=O)n2cc(Cc3cccc(F)c3)cn2)COc2ccc(C(=O)N3CCC(O)CC3)cc21` [Example 4, (S)-4-(3-fluorobenzyl)-N-(7-(4-hydroxypiperidine-1-carbonyl)-5-methyl-4-oxo-2,3,4,5-tetrahydrobenzo[b][1,4]oxazepin-3-yl)-1H-pyrazole-1-carboxamide], the IC50 is 10 to 50 nM on RIPK1 [1] and < 10 nM at RIPK1 [2].
In the same order, the values of `CN1C(=O)[C@@H](NC(=O)n2cc(Cc3cccc(F)c3)cn2)COc2ccc(C(=O)N3CCC(C)(O)CC3)cc21` [Example 5, (S)-4-(3-fluorobenzyl)-N-(7-(4-hydroxy-4-methylpiperidine-1-carbonyl)-5-methyl-4-oxo-2,3,4,5-tetrahydrobenzo[b][1,4]oxazepin-3-yl)-1H-pyrazole-1-carboxamide] are < 10 nM and < 10 nM.
In the same order, the values of `CN1C(=O)[C@@H](NC(=O)n2cc(Cc3cccc(F)c3)cn2)COc2ccc(C(=O)N3CCC(C(C)(C)O)CC3)cc21` [Example 6, (S)-4-(3-fluorobenzyl)-N-(7-(4-(2-hydroxypropan-2-yl)piperidine-1-carbonyl)-5-methyl-4-oxo-2,3,4,5-tetrahydrobenzo[b][1,4]oxazepin-3-yl)-1H-pyrazole-1-carboxamide] are < 10 nM and < 10 nM.
For the compound `CN1CCN(C(=O)c2ccc3c(c2)N(C)C(=O)[C@@H](NC(=O)n2cc(Cc4cccc(F)c4)cn2)CO3)CC1` [Example 7, (S)-4-(3-fluorobenzyl)-N-(5-methyl-7-(4-methylpiperazine-1-carbonyl)-4-oxo-2,3,4,5-tetrahydrobenzo[b][1,4]oxazepin-3-yl)-1H-pyrazole-1-carboxamide], the IC50 at RIPK1 [1] lay within 10 to 50 nM.
On the same count and under the same terms, to `CN1C(=O)[C@@H](NC(=O)n2cc(Cc3cccc(F)c3)cn2)COc2ccc(C(=O)N3CCNCC3)cc21` [Example 8, (S)-4-(3-fluorobenzyl)-N-(5-methyl-4-oxo-7-(piperazine-1-carbonyl)-2,3,4,5-tetrahydrobenzo[b][1,4]oxazepin-3-yl)-1H-pyrazole-1-carboxamide] belongs > 50 nM; to `CN1C(=O)[C@@H](NC(=O)n2cc(Cc3cccc(F)c3)cn2)COc2ccc(C(=O)N3CCOCC3)cc21` [Example 9, (S)-4-(3-fluorobenzyl)-N-(5-methyl-7-(morpholine-4-carbonyl)-4-oxo-2,3,4,5-tetrahydrobenzo[b][1,4]oxazepin-3-yl)-1H-pyrazole-1-carboxamide], 10 to 50 nM; to `CN1C(=O)[C@@H](NC(=O)n2cc(Cc3cccc(F)c3)cn2)COc2ccc(C(=O)N3CCC(O)C3)cc21` (stereo partly drawn) [Example 10, 4-(3-fluorobenzyl)-N-((3S)-7-(3-hydroxypyrrolidine-1-carbonyl)-5-methyl-4-oxo-2,3,4,5-tetrahydrobenzo[b][1,4]oxazepin-3-yl)-1H-pyrazole-1-carboxamide], < 10 nM.
For `CN(Cc1ccncc1)C(=O)c1ccc2c(c1)N(C)C(=O)[C@@H](NC(=O)n1cc(Cc3cccc(F)c3)cn1)CO2` [Example 11], the IC50 on RIPK1 [1] and at RIPK1 [2] was < 10 nM in each case.
Regarding `CN(C(=O)c1ccc2c(c1)N(C)C(=O)[C@@H](NC(=O)n1cc(Cc3cccc(F)c3)cn1)CO2)c1ccncc1` [Example 12, (S)-3-(4-(3-fluorobenzyl)-1H-pyrazole-1-carboxamido)-N,5-dimethyl-4-oxo-N-(pyridin-4-yl)-2,3,4,5-tetrahydrobenzo[b][1,4]oxazepine-7-carboxamide], the IC50 at RIPK1 [1] and on RIPK1 [2] was 10 to 50 nM in each case.
In the case of `CN1C(=O)[C@@H](NC(=O)n2cc(Cc3cccc(F)c3)cn2)COc2ccc(C(=O)NOCC(C)(C)O)cc21` [Example 13, (S)-3-(4-(3-fluorobenzyl)-1H-pyrazole-1-carboxamido)-N-(2-hydroxy-2-methylpropoxy)-5-methyl-4-oxo-2,3,4,5-tetrahydrobenzo[b][1,4]oxazepine-7-carboxamide], the IC50 on RIPK1 [1] lay within 10 to 50 nM.
`CN1C(=O)[C@@H](NC(=O)n2cc(Cc3cccc(F)c3)cn2)COc2ccc(C(=O)N3CC4(COC4)C3)cc21` [Example 14, (S)-4-(3-fluorobenzyl)-N-(5-methyl-4-oxo-7-(2-oxa-6-azaspiro[3.3]heptane-6-carbonyl)-2,3,4,5-tetrahydrobenzo[b][1,4]oxazepin-3-yl)-1H-pyrazole-1-carboxamide]: the IC50 on RIPK1 [1] and at RIPK1 [2] was 10 to 50 nM each time.
On to `CN(C)CCOc1ccc2c(c1)N(C)C(=O)[C@@H](NC(=O)n1cc(Cc3cccc(F)c3)cn1)CO2` [Example 17, (S)—N-(7-(2-(dimethylamino)ethoxy)-5-methyl-4-oxo-2,3,4,5-tetrahydrobenzo[b][1,4]oxazepin-3-yl)-4-(3-fluorobenzyl)-1H-pyrazole-1-carboxamide], for which, at RIPK1 [1], the IC50 is 10 to 50 nM.
Same read-out and setting: to `CN1C(=O)[C@@H](NC(=O)n2cc(Cc3cccc(F)c3)cn2)COc2ccc(O[C@@H]3CCOC3)cc21` [Example 32, 4-(3-fluorobenzyl)-N—((S)-5-methyl-4-oxo-7-(((R)-tetrahydrofuran-3-yl)oxy)-2,3,4,5-tetrahydrobenzo[b][1,4]oxazepin-3-yl)-1H-pyrazole-1-carboxamide] belongs < 10 nM; to `CN1CC[C@@H](Oc2ccc3c(c2)N(C)C(=O)[C@@H](NC(=O)n2cc(Cc4cccc(F)c4)cn2)CO3)C1` [Example 33, 4-(3-fluorobenzyl)-N—((S)-5-methyl-7-(((R)-1-methylpyrrolidin-3-yl)oxy)-4-oxo-2,3,4,5-tetrahydrobenzo[b][1,4]oxazepin-3-yl)-1H-pyrazole-1-carboxamide], 10 to 50 nM; to `CN1C(=O)[C@@H](NC(=O)n2cc(Cc3cccc(F)c3)cn2)COc2ccc(OCC(=O)NCC(C)(C)O)cc21` [Example 52, (S)-4-(3-fluorobenzyl)-N-(7-(2-((2-hydroxy-2-methylpropyl)amino)-2-oxoethoxy)-5-methyl-4-oxo-2,3,4,5-tetrahydrobenzo[b][1,4]oxazepin-3-yl)-1H-pyrazole-1-carboxamide], < 10 nM.
